This passage reports IC50 and inhibition results from ChEMBL document CHEMBL1629448, “Identification and synthesis of novel inhibitors of acetyl-CoA carboxylase with in vitro and in vivo efficacy on fat oxidation” (J Med Chem, 2010).

A word on the IC50: it is the concentration that inhibits the measured activity by half.

The structures appear in SMILES notation. Calls of active or inactive are those of the source. The rule behind the calls is not given here.

For assay [1], the target named is Acetyl-CoA carboxylase 2 (Homo sapiens, UniProt O00763). Put plainly: Inhibition of N-terminal His-tagged human recombinant ACC2 expressed in high five insect cells by ATP consumption assay.
Acetyl-CoA carboxylase 2, sequence (O00763 whole entry): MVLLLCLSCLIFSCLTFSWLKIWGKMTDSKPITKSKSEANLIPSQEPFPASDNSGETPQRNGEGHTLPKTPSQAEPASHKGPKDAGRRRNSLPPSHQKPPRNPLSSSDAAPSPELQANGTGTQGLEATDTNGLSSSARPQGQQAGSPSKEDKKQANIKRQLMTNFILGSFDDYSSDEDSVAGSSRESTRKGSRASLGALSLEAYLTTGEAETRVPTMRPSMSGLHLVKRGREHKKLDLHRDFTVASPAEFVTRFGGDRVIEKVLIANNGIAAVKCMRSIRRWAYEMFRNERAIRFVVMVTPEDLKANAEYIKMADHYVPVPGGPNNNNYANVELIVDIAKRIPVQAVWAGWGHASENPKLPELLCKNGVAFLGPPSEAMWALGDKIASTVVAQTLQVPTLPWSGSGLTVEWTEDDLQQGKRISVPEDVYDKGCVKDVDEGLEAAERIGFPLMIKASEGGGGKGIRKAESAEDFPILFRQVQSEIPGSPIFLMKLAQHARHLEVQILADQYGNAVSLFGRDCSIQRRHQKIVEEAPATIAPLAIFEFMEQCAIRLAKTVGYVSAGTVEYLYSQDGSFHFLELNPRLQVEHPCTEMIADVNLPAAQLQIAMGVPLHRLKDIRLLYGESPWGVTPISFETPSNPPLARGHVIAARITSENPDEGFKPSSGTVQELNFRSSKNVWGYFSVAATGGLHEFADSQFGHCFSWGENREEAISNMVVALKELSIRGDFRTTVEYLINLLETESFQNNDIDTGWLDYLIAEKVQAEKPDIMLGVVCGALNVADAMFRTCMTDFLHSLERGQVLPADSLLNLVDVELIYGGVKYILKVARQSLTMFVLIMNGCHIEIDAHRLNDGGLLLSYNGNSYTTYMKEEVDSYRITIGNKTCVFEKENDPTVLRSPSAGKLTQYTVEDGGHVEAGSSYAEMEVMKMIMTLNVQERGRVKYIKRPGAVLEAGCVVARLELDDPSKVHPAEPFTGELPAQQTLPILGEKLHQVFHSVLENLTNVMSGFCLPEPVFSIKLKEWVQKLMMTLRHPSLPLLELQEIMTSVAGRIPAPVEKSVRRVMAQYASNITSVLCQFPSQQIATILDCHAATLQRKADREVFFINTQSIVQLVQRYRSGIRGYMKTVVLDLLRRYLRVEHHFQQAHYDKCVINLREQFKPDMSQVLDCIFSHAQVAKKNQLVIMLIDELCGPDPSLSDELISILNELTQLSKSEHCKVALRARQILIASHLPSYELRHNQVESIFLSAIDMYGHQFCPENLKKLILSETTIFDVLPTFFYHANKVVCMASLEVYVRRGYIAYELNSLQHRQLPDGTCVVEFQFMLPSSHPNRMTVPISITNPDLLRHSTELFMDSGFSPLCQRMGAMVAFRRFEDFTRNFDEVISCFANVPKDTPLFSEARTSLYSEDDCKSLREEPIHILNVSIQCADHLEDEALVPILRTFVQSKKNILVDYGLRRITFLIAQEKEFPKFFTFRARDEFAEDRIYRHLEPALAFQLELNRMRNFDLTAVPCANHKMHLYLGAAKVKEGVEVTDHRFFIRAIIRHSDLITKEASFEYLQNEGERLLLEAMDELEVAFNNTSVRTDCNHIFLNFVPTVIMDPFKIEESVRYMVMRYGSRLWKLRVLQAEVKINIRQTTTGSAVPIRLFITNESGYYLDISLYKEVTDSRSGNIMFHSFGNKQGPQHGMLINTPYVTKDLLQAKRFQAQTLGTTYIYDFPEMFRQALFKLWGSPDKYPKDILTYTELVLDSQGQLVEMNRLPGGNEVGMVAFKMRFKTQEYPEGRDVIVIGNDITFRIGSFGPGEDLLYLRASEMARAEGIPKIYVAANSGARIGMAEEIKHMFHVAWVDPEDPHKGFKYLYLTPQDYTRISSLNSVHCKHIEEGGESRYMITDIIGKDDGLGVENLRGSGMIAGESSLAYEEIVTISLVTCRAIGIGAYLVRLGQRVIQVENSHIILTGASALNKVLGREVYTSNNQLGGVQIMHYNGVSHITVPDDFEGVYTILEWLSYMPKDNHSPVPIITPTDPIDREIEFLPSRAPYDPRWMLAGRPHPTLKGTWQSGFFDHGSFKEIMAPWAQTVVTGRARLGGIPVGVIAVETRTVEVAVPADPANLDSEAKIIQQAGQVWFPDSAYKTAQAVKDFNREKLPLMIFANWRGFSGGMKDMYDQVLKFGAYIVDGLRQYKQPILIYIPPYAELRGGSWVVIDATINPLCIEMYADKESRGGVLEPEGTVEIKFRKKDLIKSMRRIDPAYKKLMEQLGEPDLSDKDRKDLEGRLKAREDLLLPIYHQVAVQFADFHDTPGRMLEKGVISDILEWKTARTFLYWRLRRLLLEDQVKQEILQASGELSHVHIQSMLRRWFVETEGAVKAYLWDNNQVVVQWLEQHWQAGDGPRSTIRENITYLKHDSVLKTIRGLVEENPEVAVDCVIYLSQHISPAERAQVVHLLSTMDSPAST
The nature of assay [2]: (§1) Inhibition of N-terminal His-tagged rat recombinant ACC2 expressed in high five insect cells by ATP consumption assay.
Assay [3] addresses Acetyl-CoA carboxylase 1 (Homo sapiens, UniProt Q13085). Put plainly: Inhibition of N-terminal His-tagged human recombinant ACC1 expressed in high five insect cells by ATP consumption assay.
In assay [4] the target is Acetyl-CoA carboxylase 1 (Rattus norvegicus, UniProt P11497). Put plainly: (§2) Inhibition of N-terminal His-tagged rat recombinant ACC1 expressed in high five insect cells by ATP consumption assay.
For assay [5], the species on record is Rattus norvegicus. Described as §1.
The target of assay [6] is Acetyl-CoA carboxylase 1 (Rattus norvegicus) (UniProt P11497). The assay is described as §2.

As for `COC(=O)NC(C)CCc1ccc(Oc2ccc(OC(C)C)nc2)cc1` (centres undefined), the IC50 in assay [1] was 250 nM; in assay [2], 3900 nM; in assay [3], 1200 nM; in assay [4], 2900 nM.

Take `CC(=O)N[C@@H](C)CC[C@H]1CC[C@H](Oc2ccc(OC(C)C)nc2)CC1`: the IC50 in assay [1] turned out to be 15 nM; in assay [2], 200 nM; in assay [3], 140 nM; in assay [4] it was 1140 nM.

Turning to `CC(=O)N[C@H](C)CCc1ccc(Oc2ccc(OCc3ccccc3)cn2)cc1`, in assay [1], the IC50 is over 30000 nM.

Take `CC(=O)NCCCC1OCC(Cc2cccc(OCCC3CC3)c2)CO1` (centres undefined): the IC50 in assay [1] is 2650 nM; in assay [2] it was over 30000 nM; in assay [3], over 30000 nM; in assay [4], over 30000 nM.

For the molecule `CC(=O)NCCC[C@H]1OC[C@H](Oc2ccc(OCc3ccccc3)cn2)CO1`, the IC50 is 70 nM in assay [1], over 30000 nM in assay [2], 14600 nM in assay [3] and 14000 nM in assay [4].

Take `CC(=O)NCCCc1ccc(Oc2ccc(OC3CCCC3)cn2)cc1`: the concentration for half-maximal inhibition (IC50) in assay [1] is 1280 nM; in assay [2], over 30000 nM; in assay [3], over 30000 nM; in assay [4], over 30000 nM.

Turning to `CC(=O)N[C@@H](C)CCc1ccc(Oc2ccc(OC(C)C)cn2)cc1`, the IC50 in assay [2] came to 6750 nM; in assay [3], 1800 nM; in assay [4] it was 2600 nM.

For the molecule `CC(=O)NC(C)CCc1ccc(Oc2ccc(OC(C)C)nn2)cc1` (centres undefined), the IC50 in assay [1] is 6700 nM; in assay [2] it was over 30000 nM; in assay [3] it was 12700 nM; in assay [4], over 30000 nM.

Take `CC(=O)NC(C)CCc1ccc(Oc2ccc(OC(C)C)cn2)cc1` (centres undefined): the values for the half-maximal inhibitory concentration (IC50) in assay [2], in assay [3] and in assay [4] were 4520 nM, 1780 nM and 2600 nM, respectively.

As for `CC(=O)N[C@@H](C)CO[C@H]1CC[C@H](Oc2ccc(OC(C)C)nc2)CC1`, the IC50 in assay [1] was 60 nM; in assay [2] it was 600 nM; in assay [3], 2300 nM; in assay [4], 10500 nM.

In the case of `CC(=O)NCCCC1OCC(Cc2cccc(OCC3CCC3)c2)CO1` (centres undefined), the IC50 in assay [1] is 700 nM; in assay [2], over 30000 nM; in assay [3] it was 21000 nM; in assay [4] it was over 30000 nM.

Consider `CC(=O)NCCCC1OCC(c2cccc3cc(OC4CCCC4)ccc23)CO1` (centres undefined), for which the IC50 in assay [1] is 630 nM; in assay [2], over 30000 nM; in assay [3], over 30000 nM; in assay [4], over 30000 nM. Besides, the inhibition entry in assay [5], in assay [3] and in assay [6] was “inactive” throughout.

As to `CC(C)Oc1ccc(Oc2ccc(CC[C@H](C)NC(=O)C3CC3)cc2)cn1`, the IC50 worked out at 80 nM in assay [1], 700 nM in assay [2], 360 nM in assay [3] and 800 nM in assay [4].

On to `CC(=O)NCCC[C@H]1OC[C@H](Oc2ccc(OC3CCCC3)cc2)CO1`, for which the half-maximal inhibitory concentration (IC50) in assay [1] came out at 190 nM; in assay [2] it was 12000 nM; in assay [3], 3900 nM; in assay [4], 13000 nM.

As for `CC(CCc1ccc(Oc2ccc(OC(C)C)nc2)cc1)NC(=O)C1CC1` (centres undefined), the IC50 in assay [1] turned out to be 190 nM; in assay [2], 1900 nM; in assay [3], 620 nM; in assay [4] it was 3200 nM.

`CC(=O)NC(C)CCc1ccc(Oc2cnc(OC(C)C)nc2)cc1` (centres undefined): the IC50 in assay [1] is 700 nM; in assay [2], 20000 nM; in assay [3], 3000 nM; in assay [4], 7400 nM.

As for `CC(=O)N[C@H](C)CCc1ccc(Oc2ccc(OC(C)C)nc2)cc1`, the IC50 was 7800 nM in assay [1], over 30000 nM in assay [2], 9900 nM in assay [3] and over 30000 nM in assay [4].

`CC(=O)NC(C)CCc1ccc(Oc2ccc(OCc3ccccc3)cn2)cc1` (centres undefined): the IC50 in assay [1] was 210 nM; in assay [2] it was over 30000 nM; in assay [3], 750 nM; in assay [4], 2100 nM.

With `CC(CCc1ccc(Oc2ccc(OC(C)C)nc2)cc1)NC=O` (centres undefined), the half-inhibitory concentration (IC50) was found to be 17000 nM in assay [2], 5700 nM in assay [3] and 11000 nM in assay [4].

For the molecule `CC(=O)NC(C)CCc1ccc(OC2=NCC(OC(C)C)N=C2)cc1` (centres undefined), the IC50 in assay [1] was 1200 nM; in assay [2], over 30000 nM; in assay [3], over 30000 nM; in assay [4] it was over 30000 nM.

As to `CC(CCc1ccc(Oc2ccc(OC(C)C)nc2)cc1)NC(N)=O` (centres undefined), the results for the IC50 in assay [2], in assay [3] and in assay [4] were 3000 nM, 1200 nM and 2900 nM, respectively.

As to `CC(=O)NC(C)CCc1ccc(Oc2ccc(OCc3ccccc3)nc2)cc1` (centres undefined), the concentration for half-maximal inhibition (IC50) worked out at 80 nM in assay [1], 7900 nM in assay [2], 1100 nM in assay [3] and 700 nM in assay [4].

Take `CC(=O)NCCCC1OCC(Cc2cccc(OCCc3ccccc3)c2)CO1` (centres undefined): the IC50 was 2100 nM in assay [1], over 30000 nM in assay [2], over 30000 nM in assay [3] and over 30000 nM in assay [4].

Consider `CC(=O)NCCC[C@H]1OC[C@@H](Oc2ccc(OCc3ccccc3)cc2)CO1`, for which the IC50 in assay [1] was over 30000 nM.

As to `O=C(c1c2ccccc2cc2ccccc12)N1CCC(N2CCC[C@@H](C(=O)N3CCOCC3)C2)CC1`, the figures for the concentration for half-maximal inhibition (IC50) in assay [1], in assay [2] and in assay [3] were 70 nM, 280 nM and 910 nM, respectively.

Regarding `CC(=O)NC(C)CCc1ccc(Oc2ccc(OC3CCCC3)cn2)cc1` (centres undefined), the IC50 in assay [2] was 7900 nM; in assay [3] it was 1100 nM; in assay [4], 2900 nM.

As for `CC(=O)NCCCC1OCC(Cc2cccc(OCCC3CCCC3)c2)CO1` (centres undefined), the IC50 in assay [1] came out at 270 nM; in assay [2] it was 17000 nM; in assay [3] it was 2700 nM; in assay [4], 25000 nM.

Consider `CC(=O)N[C@@H](C)C#Cc1cnc(Oc2ccc(OC(C)C)cc2)s1`, for which the IC50 in assay [1] is 60 nM; in assay [2] it was 380 nM; in assay [3], over 10000 nM; in assay [4], over 10000 nM.

As for `CC(=O)NCCC[C@H]1OC[C@H](Oc2ccc(OCc3ccccc3)cc2)CO1`, the IC50 in assay [2], in assay [3] and in assay [4] was over 30000 nM throughout.

Turning to `CC(=O)N[C@@H](C)CCc1ccc(Oc2ccc(OCc3ccccc3)cn2)cc1`, the results for the IC50 in assay [2], in assay [3] and in assay [4] were over 30000 nM, 920 nM and 1200 nM, respectively.
